Experimental data published in US9732032B2, “3-aminocyclopentane carboxamide derivatives” (Merck Patent GmbH, priority 2012, dated 2017).

Biological target: T1, human recombinant full-length fatty acid synthase (FASN) (Homo sapiens, UniProt P49327)
T1 construct: human recombinant full-length fatty acid synthase; made in house; host or cells: SF9 cells
Experiment: Biochemical activity testing of human fatty acid synthase FASN (NADPH fluorescence intensity assay)
Settings: NADPH fluorescence decrease (ex 340 nm / em 460 nm), 30 minutes at room temperature, read-out: IC50 FASN (enzyme assay)
Description: aq (aqueous), h (hour), g (gram), L (liter), mg (milligram), MHz (Megahertz), (melting point), eq (equivalent), mL (milliliter), L (microliter), ACN (acetonitrile), AcOH (acetic acid), CDCl3 (deuterated chloroform), CD3OD (deuterated methanol), CH3CN (acetonitrile), c-hex (cyclohexane), DCC (dicyclohexyl carbodiimide), DCM (dichloromethane), DIC (diisopropyl carbodiimide), DIEA (diisopropylethyl-amine), DMF (dimethylformamide), DMSO (dimethylsulfoxide), DMSO-d6 (deuterated dimethylsulfoxide), EDC (1-(3-dimethyl-amino-propyl)-3-ethylcarbodiimide), ESI (Electro-spray ionization), EtOAc (ethyl acetate), Et2O (diethyl ether), EtOH (ethanol), HATU (dimethylamino-([1,2,3]triazolo[4,5-b]pyridin-3-yloxy)-methylene]-dimethylammonium hexafluorophosphate), HPLC (High Performance Liquid Chromatography), i-PrOH (2-propanol), K2CO3 (potassium carbonate), LC (Liquid Chromatography), MeOH (methanol), MgSO4 (magnesium sulfate), MS (mass spectrometry), MTBE (Methyl tert-butyl ether), NaHCO3 (sodium bicarbonate), NaBH4 (sodium borohydride), NMM (N-methyl morpholine), NMR (Nuclear Magnetic Resonance), PyBOP (benzotriazole-1-yl-oxy-trispyrrolidino-phosphonium hexafluorophosphate), RT (room temperature), Rt (retention time), SPE (solid phase extraction), TBTU (2-(1-H-benzotriazole-1-yl)-1,1,3,3-tetramethyluromium tetrafluoro borate), TEA (triethylamine), TFA (trifluoroacetic acid), THF (tetrahydrofuran), TLC (Thin Layer Chromatography), UV (Ultraviolet). Description of the In Vitro Assays Abbreviations: GST=Glutathione-S-transferase FRET=Fluorescence resonance energy transfer HTRF®=(homogenous time resolved fluorescence) HEPES=4-(2-hydroxyethyl)-1-piperazine ethanesulfonic acid buffer DTT=Dithiothreitol BSA=bovine serum albumin CHAPS=detergent; CHAPS=3[(3-cholamidopropyl)dimethylammonio]-1-propanesulfonate Biochemical Activity Testing of Human Fatty Acid Synthase FASN
Fatty acid synthase FASN is a multifunctional enzyme with seven catalytic activities thereby synthesising long chain fatty acids especially palmitoyl-CoA in the presence of co-factor NADPH starting from the substrates acetyl-CoA and malonyl-CoA. The reductive synthesis is realized by the oxidation of NADPH to NADP. Since NADPH has a high fluorescence intensity quantum yield compared to NADP with excitation at 340 nm and emission at 460 nm, the reaction can be monitored via the decrease in fluorescence intensity. The biochemical FASN activity testing was performed as 384 well two-time-point kinetic fluorescence intensity assay format in Greiner low volume medium binding 384-well black microtiter plates in a total assay volume of 8 μl and was used for high throughput screen. In each well 3 μl 40 nM human recombinant full-length fatty acid synthase (produced in-house in SF9 cells) were dispensed in the following assay buffer: 50 mM potassium phosphate buffer pH 7.0, 0.005% (w/v) BSA, 2 mM Glutathione, 0.02% Tween-20. Then 2 μl of 200 μM NADPH in assay buffer were added, followed by the addition of the test compounds in 10 dilution concentrations starting with 30 μM (final concentration) to get a final DMSO content of 1% (v/v). The mixture was incubated for at least 15 min at room temperature. After the pre-incubation the enzymatic reaction was started by the addition of 2 μl substrate solution (80 μM acetyl-CoA, 240 μM malonyl-CoA). A first fluorescence intensity measurement (time point one) was performed with an Envision multimode reader (Perkin Elmer LAS Germany GmbH) at excitation wavelength 340 nm (lamp mode) and emission wavelength 460 nm. The reaction was incubated for 30 minutes at room temperature. After this the fluorescence intensity was measured again in the Envision using the same parameters as described above (second time point measurement). The data were analysed by subtracting the first time point measurement value from the second time point measurement value (after the enzymatic reaction). The differences of the emission signals were determined. […]

T1 sequence (P49327 whole entry): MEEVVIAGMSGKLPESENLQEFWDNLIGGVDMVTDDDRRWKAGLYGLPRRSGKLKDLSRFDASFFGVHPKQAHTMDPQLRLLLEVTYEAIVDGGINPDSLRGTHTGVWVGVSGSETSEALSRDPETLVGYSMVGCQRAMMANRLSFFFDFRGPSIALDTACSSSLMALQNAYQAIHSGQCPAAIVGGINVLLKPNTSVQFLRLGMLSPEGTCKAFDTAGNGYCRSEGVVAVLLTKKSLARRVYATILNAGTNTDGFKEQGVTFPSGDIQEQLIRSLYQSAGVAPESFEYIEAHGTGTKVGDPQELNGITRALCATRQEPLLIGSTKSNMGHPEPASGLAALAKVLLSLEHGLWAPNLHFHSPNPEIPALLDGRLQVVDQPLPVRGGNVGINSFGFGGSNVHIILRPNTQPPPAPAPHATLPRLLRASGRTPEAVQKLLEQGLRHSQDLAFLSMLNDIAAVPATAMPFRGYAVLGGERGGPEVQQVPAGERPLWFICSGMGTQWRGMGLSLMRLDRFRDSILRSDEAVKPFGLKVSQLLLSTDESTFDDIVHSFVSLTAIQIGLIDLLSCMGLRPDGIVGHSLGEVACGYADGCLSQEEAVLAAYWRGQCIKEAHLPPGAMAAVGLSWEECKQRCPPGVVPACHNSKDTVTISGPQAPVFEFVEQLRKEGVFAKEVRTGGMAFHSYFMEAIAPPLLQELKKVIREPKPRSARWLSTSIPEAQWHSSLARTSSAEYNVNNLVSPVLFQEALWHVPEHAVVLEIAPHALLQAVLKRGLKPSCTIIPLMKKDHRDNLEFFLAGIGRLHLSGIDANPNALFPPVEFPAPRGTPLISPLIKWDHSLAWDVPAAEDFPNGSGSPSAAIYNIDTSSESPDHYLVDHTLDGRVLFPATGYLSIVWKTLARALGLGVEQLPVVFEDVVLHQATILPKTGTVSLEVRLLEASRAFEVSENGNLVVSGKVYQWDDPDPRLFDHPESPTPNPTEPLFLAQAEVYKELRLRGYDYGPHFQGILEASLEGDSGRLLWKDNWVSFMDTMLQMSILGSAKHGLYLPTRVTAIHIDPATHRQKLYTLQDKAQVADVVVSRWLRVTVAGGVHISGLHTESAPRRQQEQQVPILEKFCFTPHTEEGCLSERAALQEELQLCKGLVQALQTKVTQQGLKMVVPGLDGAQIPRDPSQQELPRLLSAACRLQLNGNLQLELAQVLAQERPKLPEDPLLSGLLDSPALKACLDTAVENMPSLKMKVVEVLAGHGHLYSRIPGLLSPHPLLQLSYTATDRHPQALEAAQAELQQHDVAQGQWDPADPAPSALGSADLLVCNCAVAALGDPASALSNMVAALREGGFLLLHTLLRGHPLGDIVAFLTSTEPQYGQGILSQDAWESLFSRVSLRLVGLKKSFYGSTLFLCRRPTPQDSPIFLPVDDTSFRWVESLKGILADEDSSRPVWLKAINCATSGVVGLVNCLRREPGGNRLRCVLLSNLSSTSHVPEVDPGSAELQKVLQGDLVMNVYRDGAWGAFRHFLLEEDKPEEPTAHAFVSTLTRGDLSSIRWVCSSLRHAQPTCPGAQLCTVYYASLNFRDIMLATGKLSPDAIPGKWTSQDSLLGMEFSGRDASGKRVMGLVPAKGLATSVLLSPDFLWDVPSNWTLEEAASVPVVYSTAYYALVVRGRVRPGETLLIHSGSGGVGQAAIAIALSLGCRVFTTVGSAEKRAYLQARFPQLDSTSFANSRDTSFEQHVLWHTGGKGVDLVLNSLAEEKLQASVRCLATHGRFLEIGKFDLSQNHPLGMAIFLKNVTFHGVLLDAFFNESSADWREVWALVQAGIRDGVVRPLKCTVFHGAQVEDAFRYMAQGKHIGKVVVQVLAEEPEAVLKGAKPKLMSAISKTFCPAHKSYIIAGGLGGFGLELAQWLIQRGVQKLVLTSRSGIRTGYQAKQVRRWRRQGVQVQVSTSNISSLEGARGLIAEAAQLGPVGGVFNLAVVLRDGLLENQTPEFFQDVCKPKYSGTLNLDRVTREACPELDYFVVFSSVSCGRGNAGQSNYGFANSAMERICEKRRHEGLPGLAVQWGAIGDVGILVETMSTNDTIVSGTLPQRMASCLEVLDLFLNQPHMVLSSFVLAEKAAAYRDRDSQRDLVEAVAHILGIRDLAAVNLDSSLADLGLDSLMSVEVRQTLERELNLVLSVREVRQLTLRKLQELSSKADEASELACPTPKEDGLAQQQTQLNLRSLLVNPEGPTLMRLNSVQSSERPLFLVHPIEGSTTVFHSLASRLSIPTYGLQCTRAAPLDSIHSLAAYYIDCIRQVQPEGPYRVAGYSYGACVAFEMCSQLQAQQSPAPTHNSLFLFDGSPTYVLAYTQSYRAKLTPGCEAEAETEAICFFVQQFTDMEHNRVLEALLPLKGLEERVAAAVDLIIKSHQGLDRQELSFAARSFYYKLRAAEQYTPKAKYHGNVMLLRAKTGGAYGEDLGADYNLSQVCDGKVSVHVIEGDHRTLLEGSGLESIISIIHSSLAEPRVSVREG

SMILES | IC50 [nM]
C[C@H](CO)NC(=O)[C@H]1CC[C@@H](N(C)C(=O)c2ccc(-c3nc4ccccc4o3)cc2)C1 [Compound A91, 4-benzoxazol-2-yl-N-[(1R,3S)-3-((R)-2-hydroxy-1-methyl-ethylcarbamoyl)-cyclopentyl]-N-methyl-benzamide] | < 300
COC[C@H](C)NC(=O)[C@H]1CC[C@@H](N(C)C(=O)c2ccc(-c3nc4ccccc4o3)cc2)C1 [Compound A92, 4-benzoxazol-2-yl-N-[(1R,3S)-3-((S)-2-methoxy-1-methyl-ethylcarbamoyl)-cyclopentyl]-N-methyl-benzamide] | 300 to 3000
CCNC(=O)[C@H]1CC[C@@H](N(C)C(=O)c2ccc(-c3nc4cc(S(N)(=O)=O)ccc4o3)cc2)C1 [Compound A93, N-((1R,3S)-3-ethylcarbamoyl-cyclopentyl)-N-methyl-4-(5-sulfamoyl-benzooxazol-2-yl)-benzamide] | 3000 to 50000
CCNC(=O)[C@H]1CC[C@@H](N(C)C(=O)c2ccc(-c3nc4cc(F)cc(F)c4o3)cc2)C1 [Compound A96, 4-(5,7-difluoro-benzoxazol-2-yl)-N-((1R,3S)-3-ethylcarbamoyl-cyclopentyl)-N-methyl-benzamide] | < 300
CCNC(=O)[C@H]1CC[C@@H](N(C)C(=O)c2ccc(-c3nc4ccc(F)cc4o3)cc2)C1 [Compound A98, N-((1R,3S)-3-ethylcarbamoyl-cyclopentyl)-4-(6-fluoro-benzooxazol-2-yl)-N-methyl-benzamide] | < 300
CN(C(=O)c1ccc(-c2nc3ccccc3o2)cc1)[C@@H]1CC[C@H](C(=O)NC(C)(C)CO)C1 [Compound A99, 4-benzoxazol-2-yl-N-[(1R,3S)-3-(2-hydroxy-1,1-dimethyl-ethylcarbamoyl)-cyclopentyl]-N-methyl-benzamide] | 300 to 3000
CCNC(=O)[C@H]1CC[C@@H](N(C)C(=O)c2ccc(-c3nc4cc(F)c(F)cc4o3)cc2)C1 [Compound A101, 4-(5,6-difluoro-benzoxazol-2-yl)-N-((1R,3S)-3-ethylcarbamoyl-cyclopentyl)-N-methyl-benzamide] | < 300
CCNC(=O)[C@H]1CC[C@@H](N(C)C(=O)c2ccc(-c3cccnc3)cc2)C1 [Compound A102, N-((1R,3S)-3-ethylcarbamoyl-cyclopentyl)-N-methyl-4-pyridin-3-yl-benzamide] | < 300
CCNC(=O)[C@H]1CC[C@@H](N(C)C(=O)c2ccc(-c3ccc(C#N)cc3)cc2)C1 [Compound A103, 4′-cyano-biphenyl-4-carboxylic acid ((1R,3S)-3-ethylcarbamoyl-cyclopentyl)-methyl-amide] | < 300
CCNC(=O)[C@H]1CC[C@@H](N(C)C(=O)c2ccc(-c3ccc(F)cc3)cc2)C1 [Compound A104, 4′-fluoro-biphenyl-4-carboxylic acid ((1R,3S)-3-ethylcarbamoyl-cyclopentyl)-methyl-amide] | < 300
CN(C(=O)c1ccc(-c2nc3ccccc3o2)cc1)[C@@H]1CC[C@H](C(=O)NCCO)C1 [Compound A106, 4-benzoxazol-2-yl-N-[(1R,3S)-3-(2-hydroxy-ethylcarbamoyl)-cyclopentyl]-N-methyl-benzamide] | < 300
CCNC(=O)[C@H]1CC[C@@H](N(C)C(=O)c2ccc(-c3cccc4[nH]ncc34)cc2)C1 [Compound A107, N-((1R,3S)-3-ethylcarbamoyl-cyclopentyl)-4-(1H-indazol-4-yl)-N-methyl-benzamide] | < 300
CN(C(=O)c1ccc(-c2nc3ccccc3o2)cc1)[C@@H]1CC[C@H](C(=O)NC2(CO)CC2)C1 [Compound A108, 4-benzoxazol-2-yl-N-[(1R,3S)-3-(1-hydroxymethyl-cyclopropylcarbamoyl)-cyclopentyl]-N-methyl-benzamide] | 300 to 3000
